Laboratory results taken from patent US20070167492A1, “Molluscicidal agents” (priority 2003, published 2007).

System: Deroceras reticulatum (grey field slug)
Experiment: Example 1: pot test, treated winter wheat seed with 5 adult slugs per pot, 14 days
Type: in vivo
In short: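 Fludioxonil-disinfected winter wheat seed (Kampa, 40 per pot) sown on quartz sand over potting soil with 5 adult slugs per pot; ±15° C., ±90% RH, 12 h light/12 h dark, 4 replicates. Damaged seeds, plants, dead slugs and fecal pellets counted up to day 14; F-tests and Student-tests.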

[1] = 2 ml formulated per kg seed, 2 days after sowing
[2] = 2 ml formulated per kg seed, 3 days after sowing
[3] = 2 ml formulated per kg seed, 7 days after sowing
[4] = 2 ml formulated per kg seed, 10 days after sowing
[5] = 2 ml formulated per kg seed, 14 days after sowing
[6] = 4 ml formulated per kg seed, 2 days after sowing
[7] = 4 ml formulated per kg seed, 3 days after sowing
[8] = 4 ml formulated per kg seed, 7 days after sowing
[9] = 4 ml formulated per kg seed, 10 days after sowing
[10] = 4 ml formulated per kg seed, 14 days after sowing
[11] = 8 ml formulated per kg seed, 2 days after sowing
[12] = 8 ml formulated per kg seed, 3 days after sowing
[13] = 8 ml formulated per kg seed, 7 days after sowing
[14] = 8 ml formulated per kg seed, 10 days after sowing
[15] = 8 ml formulated per kg seed, 14 days after sowing
[16] = 12 ml formulated per kg seed, 2 days after sowing
[17] = 12 ml formulated per kg seed, 3 days after sowing
[18] = 12 ml formulated per kg seed, 7 days after sowing
[19] = 12 ml formulated per kg seed, 10 days after sowing
[20] = 12 ml formulated per kg seed, 14 days after sowing

With O=[N+]([O-])NC1=NCCN1Cc1ccc(Cl)nc1 [imidacloprid] the “number of utilizable plants after 14 days” value (“number of utilizable plants” below) (2 ml formulated per kg seed) was 2.5, the “percentage of damaged seeds after 14 days” value (“percentage of damaged seeds” below) (2 ml formulated per kg seed) was 86% and the “Mean number of damaged seeds per pot” value [1] was 2.8. For the same compound, the “Mean number of dead slugs per pot” value [1] was 0, the “Mean number fecal pellets per pot” value [2] was 33 and the “Mean number of damaged seeds per pot” value [2] was 10.3. The “Mean number of dead slugs per pot” value [2] was 0, the “Mean number of plants present per pot” value [2] was 3.8 and the “Mean number fecal pellets per pot” value [3] was 118. The “Mean number of damaged seeds per pot” value [3] was 33.0, the “Mean number of dead slugs per pot” value [3] was 0 and the “Mean number of plants present per pot” value [3] was 2.8. For the same compound, the “Mean number fecal pellets per pot” value [4] was 109, the “Mean number of damaged seeds per pot” value [4] was 33.5 and the “Mean number of dead slugs per pot” value [4] was 0.3. The “Mean number of plants present per pot” value [4] was 4.5, the “Mean number fecal pellets per pot” value [5] was 116 and the “Mean number of damaged seeds per pot” value [5] was 34.3. The “Mean number of dead slugs per pot” value [5] was 0.5, the “Mean number of plants present per pot” value [5] was 3.3 and the “number of utilizable plants” value (4 ml formulated per kg seed) was 0.8. For the same compound, the “percentage of damaged seeds” value (4 ml formulated per kg seed) was 81%, the “Mean number of damaged seeds per pot” value [6] was 1.0 and the “Mean number of dead slugs per pot” value [6] was 0. The “Mean number fecal pellets per pot” value [7] was 21, the “Mean number of damaged seeds per pot” value [7] was 7.3 and the “Mean number of dead slugs per pot” value [7] was 0.3. For the same compound, the “Mean number of plants present per pot” value [7] was 2.3, the “Mean number fecal pellets per pot” value [8] was 108 and the “Mean number of damaged seeds per pot” value [8] was 32.8. The “Mean number of dead slugs per pot” value [8] was 0.3, the “Mean number of plants present per pot” value [8] was 1.3 and the “Mean number fecal pellets per pot” value [9] was 118. The “Mean number of damaged seeds per pot” value [9] was 31.5, the “Mean number of dead slugs per pot” value [9] was 0.3 and the “Mean number of plants present per pot” value [9] was 4.0. For the same compound, the “Mean number fecal pellets per pot” value [10] was 126, the “Mean number of damaged seeds per pot” value [10] was 32.3 and the “Mean number of dead slugs per pot” value [10] was 0.3. The “Mean number of plants present per pot” value [10] was 3.5, the “number of utilizable plants” value (8 ml formulated per kg seed) was 7.3 and the “percentage of damaged seeds” value (8 ml formulated per kg seed) was 59%. For the same compound, the “Mean number of damaged seeds per pot” value [11] was 1.3, the “Mean number of dead slugs per pot” value [11] was 0 and the “Mean number fecal pellets per pot” value [12] was 11. The “Mean number of damaged seeds per pot” value [12] was 4.5, the “Mean number of dead slugs per pot” value [12] was 0 and the “Mean number of plants present per pot” value [12] was 13.8. For the same compound, the “Mean number fecal pellets per pot” value [13] was 48, the “Mean number of damaged seeds per pot” value [13] was 23.8 and the “Mean number of dead slugs per pot” value [13] was 0. The “Mean number of plants present per pot” value [13] was 9.0, the “Mean number fecal pellets per pot” value [14] was 65 and the “Mean number of damaged seeds per pot” value [14] was 23.5. For the same compound, the “Mean number of dead slugs per pot” value [14] was 0.3, the “Mean number of plants present per pot” value [14] was 9.5 and the “Mean number fecal pellets per pot” value [15] was 75. The “Mean number of damaged seeds per pot” value [15] was 23.8, the “Mean number of dead slugs per pot” value [15] was 0.5 and the “Mean number of plants present per pot” value [15] was 10.5. The “number of utilizable plants” value (12 ml formulated per kg seed) was 14.3, the “percentage of damaged seeds” value (12 ml formulated per kg seed) was 22% and the “Mean number of damaged seeds per pot” value [16] was 0.0. For the same compound, the “Mean number of dead slugs per pot” value [16] was 0, the “Mean number fecal pellets per pot” value [17] was 9 and the “Mean number of damaged seeds per pot” value [17] was 4.3. For the same compound, the “Mean number of dead slugs per pot” value [17] was 1.5, the “Mean number of plants present per pot” value [17] was 11.8 and the “Mean number fecal pellets per pot” value [18] was 26. The “Mean number of damaged seeds per pot” value [18] was 11.5, the “Mean number of dead slugs per pot” value [18] was 1.5 and the “Mean number of plants present per pot” value [18] was 16.3. The “Mean number fecal pellets per pot” value [19] was 35, the “Mean number of damaged seeds per pot” value [19] was 7.8 and the “Mean number of dead slugs per pot” value [19] was 1.5. For the same compound, the “Mean number of plants present per pot” value [19] was 19.0, the “Mean number fecal pellets per pot” value [20] was 38 and the “Mean number of damaged seeds per pot” value [20] was 8.8. For the same compound, the “Mean number of dead slugs per pot” value [20] was 1.5, the “Mean number of plants present per pot” value [20] was 20 and the “damaged seeds relative to untreated seed” value (Example 1, 2 ml/kg) was “no controlling effect”. The “damaged seeds relative to untreated seed” value (Example 1, 4 ml/kg) was “controlling effect only after 2 and 3 days”, the “damaged seeds relative to untreated seed” value (Example 1, 8 ml/kg, after 3, 7 and 14 days) was “significant controlling effect” and the “damaged seeds relative to the untreated pots” value (Example 1, 12 ml per kg of seed, at each observation) was “significantly less damaged seeds”. The “fecal pellets relative to the untreated seed” value (Example 1, 12 ml per kg of seed, each observation) was “significantly less fecal pellets”, the “dead slugs relative to the untreated seed” value (Example 1, 12 ml/kg, 3 and 7 days after the start) was “significantly more dead slugs” and the “plants present relative to the untreated seed” value (Example 1, 12 ml/kg, at each observation) was “significantly more plants present”. The “slug controlling effect (conclusion)” value (Example 1, dosage of 12 ml per kg of seed) was “good slug controlling agent”.
